This is an account of results in patent publication US10934298B2, “Substituted pyrazolo[1,5-a]pyrimidines for the treatment of medical disorders” (BIAL—BioTech Investments, Inc., priority 2016, dated 2021).

The target of this experiment is T1, glucocerebrosidase (Gcase) (Homo sapiens, UniProt P04062).
T1 construct: micellar solution containing 10 nM GCase and 100 nM saposin C
T1 sequence (P04062 40-536): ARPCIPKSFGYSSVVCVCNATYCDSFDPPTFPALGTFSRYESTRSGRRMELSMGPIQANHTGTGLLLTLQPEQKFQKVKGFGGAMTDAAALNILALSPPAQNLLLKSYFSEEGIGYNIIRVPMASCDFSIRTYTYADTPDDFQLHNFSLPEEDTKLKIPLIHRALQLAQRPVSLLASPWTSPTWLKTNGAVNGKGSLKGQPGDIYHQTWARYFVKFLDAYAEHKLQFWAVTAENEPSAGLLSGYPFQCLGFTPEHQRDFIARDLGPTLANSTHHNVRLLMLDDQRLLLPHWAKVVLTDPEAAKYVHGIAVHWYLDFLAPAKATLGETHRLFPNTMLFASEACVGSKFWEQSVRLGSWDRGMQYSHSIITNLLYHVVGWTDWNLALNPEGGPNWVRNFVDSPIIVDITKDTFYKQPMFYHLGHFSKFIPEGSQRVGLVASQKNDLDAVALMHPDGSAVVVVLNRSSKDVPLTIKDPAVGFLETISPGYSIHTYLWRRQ
Nature of the experiment: Glucocerebrosidase (Gcase) activation assay with 4-methylumbelliferyl-beta-D-glucopyranoside substrate, saposin C and phosphatidylserine/triton micelles, fluorescence readout. In kind it is biochemical. An outline of the steps:
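Fluorescence (ex 365 nm, em 440 nm) read after glycine pH 12.5 stop of a 15 min room-temperature reaction. GCase 10 nM plus saposin C 100 nM in PS/triton micelles, pH 4.7, preincubated 30 min with compound; substrate solution held 2 mM 4-MU-beta-glucoside. Screened at 1.0 and 0.1 μM; 8-point, 3-fold curves from 5 μM top.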

Consider `Cc1ccncc1-c1cc(C)n2ncc(C(=O)NC(C3CC3)C(F)(F)F)c2n1` (stereo not drawn) [III-274], for which, for the setting “test compound at 0.1 μM”, the “Percent Gcase Activation, 0.1 μM Test Compound” value is listed as “* (less than 10% Gcase activation)”. Where the note is “test compound at 1.0 μM”, the “Percent Gcase Activation, 1 μM Test Compound” value is on record as “+++ (Gcase activation greater than 60%)”.

On to `Cc1cncc(-c2cc(C)n3ncc(C(=O)NC(C4CC4)C(F)(F)F)c3n2)c1` (stereo not drawn) [III-275], for which the “Percent Gcase Activation, 0.1 μM Test Compound” value (test compound at 0.1 μM) was “*** (greater than 20% Gcase activation)”. Further, for the setting “test compound at 1.0 μM”, the “Percent Gcase Activation, 1 μM Test Compound” value was “+++ (Gcase activation greater than 60%)”.

For `Cc1cncc(-c2cc(C)n3ncc(C(=O)N[C@H](C4CC4)C(F)(F)F)c3n2)c1` [III-276], the “Percent Gcase Activation, 0.1 μM Test Compound” value (test compound at 0.1 μM) was “*** (greater than 20% Gcase activation)”. For the setting “test compound at 1.0 μM”, the “Percent Gcase Activation, 1 μM Test Compound” value was “+++ (Gcase activation greater than 60%)”.

`Cc1cncc(-c2cc(C)n3ncc(C(=O)N[C@@H](C4CC4)C(F)(F)F)c3n2)c1` [III-277]: the “Percent Gcase Activation, 0.1 μM Test Compound” value (test compound at 0.1 μM) is recorded as “*** (greater than 20% Gcase activation)”. For the setting “test compound at 1.0 μM”, the “Percent Gcase Activation, 1 μM Test Compound” value is given as “+++ (Gcase activation greater than 60%)”.

With `Cc1ccc(-c2cc(C)n3ncc(C(=O)NC(C4CC4)C(F)(F)F)c3n2)cn1` (stereo not drawn) [III-278], where the note is “test compound at 0.1 μM”, the “Percent Gcase Activation, 0.1 μM Test Compound” value is “*** (greater than 20% Gcase activation)”. The “Percent Gcase Activation, 1 μM Test Compound” value (test compound at 1.0 μM) is on record as “+++ (Gcase activation greater than 60%)”.

Regarding `Cc1ccc(-c2cc(C)n3ncc(C(=O)N[C@H](C4CC4)C(F)(F)F)c3n2)cn1` [III-279], the “Percent Gcase Activation, 0.1 μM Test Compound” value (test compound at 0.1 μM) was “** (Gcase activation in the range of 10% up to 20%)”. In addition, the “Percent Gcase Activation, 1 μM Test Compound” value (test compound at 1.0 μM) is given as “+++ (Gcase activation greater than 60%)”.

For `Cc1ccc(-c2cc(C)n3ncc(C(=O)N[C@@H](C4CC4)C(F)(F)F)c3n2)cn1` [III-280], the “Percent Gcase Activation, 0.1 μM Test Compound” value (test compound at 0.1 μM) is “*** (greater than 20% Gcase activation)”. In addition, the “Percent Gcase Activation, 1 μM Test Compound” value (test compound at 1.0 μM) is given as “+++ (Gcase activation greater than 60%)”.

As for `Cc1ccncc1-c1cc(C)n2ncc(C(=O)NC(C)C(F)(F)F)c2n1` (stereo not drawn) [III-281], the “Percent Gcase Activation, 0.1 μM Test Compound” value (test compound at 0.1 μM) is “* (less than 10% Gcase activation)”. For the setting “test compound at 1.0 μM”, the “Percent Gcase Activation, 1 μM Test Compound” value was “+ (less than 30% Gcase activation)”.

For the compound `Cc1cncc(-c2cc(C)n3ncc(C(=O)NC(C)C(F)(F)F)c3n2)c1` (stereo not drawn) [III-282], the “Percent Gcase Activation, 0.1 μM Test Compound” value (test compound at 0.1 μM) is recorded as “** (Gcase activation in the range of 10% up to 20%)”. For the same compound, the “Percent Gcase Activation, 1 μM Test Compound” value (test compound at 1.0 μM) is on record as “+++ (Gcase activation greater than 60%)”.

For `Cc1ccc(-c2cc(C)n3ncc(C(=O)NC(C)C(F)(F)F)c3n2)cn1` (stereo not drawn) [III-283], under “0.1 μM test compound”, the “Percent Gcase Activation, 0.1 μM Test Compound” value is “* (less than 10% Gcase activation)”. Further, for the setting “1 μM test compound”, the “Percent Gcase Activation, 1 μM Test Compound” value was “++ (Gcase activation in the range of 30% up to 60%)”.

Turning to `Cc1cc(-c2cnccc2C(F)(F)F)nc2c(C(=O)NC(C)C(F)(F)F)cnn12` (stereo not drawn) [III-284], the “Percent Gcase Activation, 0.1 μM Test Compound” value (0.1 μM test compound) is given as “** (Gcase activation in the range of 10% up to 20%)”. Moreover, the “Percent Gcase Activation, 1 μM Test Compound” value (1 μM test compound) is recorded as “+++ (Gcase activation greater than 60%)”.

Take `Cc1cc(-c2cncc(C(F)(F)F)c2)nc2c(C(=O)NC(C)C(F)(F)F)cnn12` (stereo not drawn) [III-285]: under “0.1 μM test compound”, the “Percent Gcase Activation, 0.1 μM Test Compound” value is recorded as “*** (greater than 20% Gcase activation)”. Further, for the setting “1 μM test compound”, the “Percent Gcase Activation, 1 μM Test Compound” value was “+++ (Gcase activation greater than 60%)”.

Regarding `Cc1cc(-c2cncc(C(F)(F)F)c2)nc2c(C(=O)N[C@H](C)C(F)(F)F)cnn12` [III-286], the “Percent Gcase Activation, 0.1 μM Test Compound” value (0.1 μM test compound) is on record as “*** (greater than 20% Gcase activation)”. In addition, the “Percent Gcase Activation, 1 μM Test Compound” value (1 μM test compound) was “+++ (Gcase activation greater than 60%)”.

Consider `Cc1cc(-c2cncc(C(F)(F)F)c2)nc2c(C(=O)N[C@@H](C)C(F)(F)F)cnn12` [III-287], for which the “Percent Gcase Activation, 0.1 μM Test Compound” value (0.1 μM test compound) is on record as “*** (greater than 20% Gcase activation)”. Besides, the “Percent Gcase Activation, 1 μM Test Compound” value (1 μM test compound) is reported as “+++ (Gcase activation greater than 60%)”.

`Cc1cc(-c2ccc(C(F)(F)F)nc2)nc2c(C(=O)NC(C)C(F)(F)F)cnn12` (stereo not drawn) [III-288]: the “Percent Gcase Activation, 0.1 μM Test Compound” value (0.1 μM test compound) is on record as “** (Gcase activation in the range of 10% up to 20%)”. Moreover, the “Percent Gcase Activation, 1 μM Test Compound” value (1 μM test compound) is “+++ (Gcase activation greater than 60%)”.

Consider `Cc1cc(-c2ccc3c(c2)OCO3)nc2c(C(=O)NC(C)C(F)(F)F)cnn12` (stereo not drawn) [III-289], for which the “Percent Gcase Activation, 0.1 μM Test Compound” value (0.1 μM test compound) is given as “*** (greater than 20% Gcase activation)”. Besides, the “Percent Gcase Activation, 1 μM Test Compound” value (1 μM test compound) was “+++ (Gcase activation greater than 60%)”.

With `Cc1cc(-c2cncc(Cl)c2)nc2c(C(=O)N[C@@H](C)C3CC3)cnn12` [III-290], the “Percent Gcase Activation, 0.1 μM Test Compound” value (0.1 μM test compound) is on record as “*** (greater than 20% Gcase activation)”. The “Percent Gcase Activation, 1 μM Test Compound” value (1 μM test compound) is “+++ (Gcase activation greater than 60%)”.

For the compound `Cc1cc(-c2cncc(Cl)c2)nc2c(C(=O)N[C@H](C)C3CC3)cnn12` [III-291], the “Percent Gcase Activation, 0.1 μM Test Compound” value (0.1 μM test compound) is given as “*** (greater than 20% Gcase activation)”. In addition, for the setting “1 μM test compound”, the “Percent Gcase Activation, 1 μM Test Compound” value is “+++ (Gcase activation greater than 60%)”.

For the compound `Cc1cc(-c2cncc(Cl)c2)nc2c(C(=O)NC(C)(C)C3CC3)cnn12` [III-292], for the setting “0.1 μM test compound”, the “Percent Gcase Activation, 0.1 μM Test Compound” value was “*** (greater than 20% Gcase activation)”. The “Percent Gcase Activation, 1 μM Test Compound” value (1 μM test compound) is on record as “+++ (Gcase activation greater than 60%)”.

With `CCCCO[C@H]1CC[C@H](NC(=O)c2cnn3c(C)cc(-c4cncc(Cl)c4)nc23)CC1` [III-293], for the setting “0.1 μM test compound”, the “Percent Gcase Activation, 0.1 μM Test Compound” value is “*** (greater than 20% Gcase activation)”. Further, the “Percent Gcase Activation, 1 μM Test Compound” value (1 μM test compound) is reported as “+++ (Gcase activation greater than 60%)”.

`Cc1cc(-c2cc(F)c3c(c2)OCO3)nc2c(C(=O)NC(C)C(F)(F)F)cnn12` (stereo not drawn) [III-294]: under “0.1 μM test compound”, the “Percent Gcase Activation, 0.1 μM Test Compound” value is given as “*** (greater than 20% Gcase activation)”. In addition, the “Percent Gcase Activation, 1 μM Test Compound” value (1 μM test compound) was “+++ (Gcase activation greater than 60%)”.

As to `Cc1cc(-c2cc(F)c3ocnc3c2)nc2c(C(=O)NC(C)C(F)(F)F)cnn12` (stereo not drawn) [III-295], the “Percent Gcase Activation, 0.1 μM Test Compound” value (0.1 μM test compound) was “*** (greater than 20% Gcase activation)”. Also, the “Percent Gcase Activation, 1 μM Test Compound” value (1 μM test compound) is recorded as “+++ (Gcase activation greater than 60%)”.

Turning to `Cc1cc(-c2cc(F)c3ocnc3c2)nc2c(C(=O)N[C@H](C)C(F)(F)F)cnn12` [III-296], for the setting “0.1 μM test compound”, the “Percent Gcase Activation, 0.1 μM Test Compound” value is reported as “*** (greater than 20% Gcase activation)”. In addition, the “Percent Gcase Activation, 1 μM Test Compound” value (1 μM test compound) is listed as “+++ (Gcase activation greater than 60%)”.

On to `Cc1cc(-c2cc(F)c3ocnc3c2)nc2c(C(=O)N[C@@H](C)C(F)(F)F)cnn12` [III-297], for which the “Percent Gcase Activation, 0.1 μM Test Compound” value (0.1 μM test compound) is given as “*** (greater than 20% Gcase activation)”. Also, for the setting “1 μM test compound”, the “Percent Gcase Activation, 1 μM Test Compound” value is listed as “+++ (Gcase activation greater than 60%)”.

With `COCCOc1ccc(-c2cc(C)n3ncc(C(=O)NC(C)C(F)(F)F)c3n2)cc1F` (stereo not drawn) [III-298], for the setting “0.1 μM test compound”, the “Percent Gcase Activation, 0.1 μM Test Compound” value was “*** (greater than 20% Gcase activation)”. Also, the “Percent Gcase Activation, 1 μM Test Compound” value (1 μM test compound) is given as “+++ (Gcase activation greater than 60%)”.

With `Cc1cc(-c2ccc(N3CCOCC3)c(F)c2)nc2c(C(=O)NC(C)C(F)(F)F)cnn12` (stereo not drawn) [III-299], for the setting “0.1 μM test compound”, the “Percent Gcase Activation, 0.1 μM Test Compound” value is recorded as “*** (greater than 20% Gcase activation)”. Further, the “Percent Gcase Activation, 1 μM Test Compound” value (1 μM test compound) is listed as “+++ (Gcase activation greater than 60%)”.

For the compound `Cc1cc(-c2sccc2C#N)nc2c(C(=O)NC(C)C(F)(F)F)cnn12` (stereo not drawn) [III-300], the “Percent Gcase Activation, 0.1 μM Test Compound” value (0.1 μM test compound) is “*** (greater than 20% Gcase activation)”. In addition, the “Percent Gcase Activation, 1 μM Test Compound” value (1 μM test compound) is reported as “+++ (Gcase activation greater than 60%)”.
